In brackets after ≈: the same amount, converted by molar mass.
Key:
LNCaP = experiment: Cytotoxicity against human LNCAP cells; assay type: functional; conditions: read-out: ED50 (the source's name)
Lu1 = experiment: Cytotoxicity against human Lu1 cells; assay type: functional; conditions: read-out: ED50 (the source's name)
[1] = Cytotoxicity against human HUVEC; assay type: cell-based; conditions: HUVEC cells, read-out: ED50 (the source's name)
MCF7 = experiment: Cytotoxicity against human MCF7 cells; assay type: functional; conditions: read-out: ED50 (the source's name)

SMILES: CC(=O)OC[C@H]1O[C@@H](O[C@@H]2[C@@H](O)[C@H](O[C@H]3CC[C@]4(C)[C@H]5CC=C6[C@@H]7CC(C)(C)CC[C@]7(CO)CC[C@@]6(C)[C@]5(C)CC[C@H]4C3(C)C)OC[C@H]2O)[C@H](O)[C@@H](O)[C@@H]1O
- EC50 (LNCaP): > 20 µg/mL
- EC50 (Lu1): > 20 µg/mL
- CC50 [1]: > 20 µg/mL
- EC50 (MCF7): > 20 µg/mL

SMILES: CC1(C)CC[C@]2(CO)CC[C@]3(C)C(=CC[C@@H]4[C@@]5(C)CC[C@H](O[C@@H]6O[C@H](CO)[C@@H](O)[C@H](O[C@@H]7OC[C@H](O)[C@H](O)[C@H]7O)[C@H]6O[C@@H]6O[C@H](CO)[C@@H](O)[C@H](O)[C@H]6O)C(C)(C)[C@@H]5CC[C@]43C)[C@@H]2C1 [NEPHELIOSIDE II]
- EC50 (LNCaP): > 20 µg/mL
- EC50 (Lu1): > 20 µg/mL
- CC50 [1]: > 20 µg/mL
- EC50 (MCF7): > 20 µg/mL

SMILES: CO[C@@H]1C[C@H]2C(C)(C)[C@@H](O[C@@H]3O[C@H](CO)[C@@H](O)[C@H](O[C@@H]4OC[C@H](O)[C@H](O)[C@H]4O)[C@H]3O[C@@H]3O[C@H](CO)[C@@H](O)[C@H](O)[C@H]3O)CC[C@]2(C)[C@H]2CC=C3[C@@H]4CC(C)(C)CC[C@]4(CO)CC[C@@]3(C)[C@@]21C [NEPHELIOSIDE IV]
- EC50 (LNCaP): > 20 µg/mL
- EC50 (Lu1): > 20 µg/mL
- CC50 [1]: > 20 µg/mL
- EC50 (MCF7): > 20 µg/mL

SMILES: CC1(C)CC[C@]2(CO)CC[C@]3(C)C(=CC[C@@H]4[C@@]5(C)CC[C@H](O[C@@H]6OC[C@@H](O)[C@H](O[C@@H]7OC[C@H](O)[C@H](O)[C@H]7O)[C@H]6O[C@@H]6O[C@H](CO)[C@@H](O)[C@H](O)[C@H]6O)C(C)(C)[C@@H]5CC[C@]43C)[C@@H]2C1 [NEPHELIOSIDE I]
- EC50 (LNCaP): > 20 µg/mL
- EC50 (Lu1): 19.5 µg/mL (≈ 22.4 µM)
- CC50 [1]: > 20 µg/mL
- EC50 (MCF7): > 20 µg/mL

SMILES: CC1(C)CC[C@]2(C)[C@@H](O)C[C@]3(C)C(=CC[C@@H]4[C@@]5(C)CC[C@H](O[C@@H]6O[C@H](CO)[C@@H](O)[C@H](O[C@@H]7OC[C@H](O)[C@H](O)[C@H]7O)[C@H]6O[C@@H]6O[C@H](CO)[C@@H](O)[C@H](O)[C@H]6O)C(C)(C)[C@@H]5CC[C@]43C)[C@@H]2C1 [NEPHELIOSIDE VI]
- EC50 (LNCaP): > 20 µg/mL
- EC50 (Lu1): > 20 µg/mL
- CC50 [1]: > 20 µg/mL
- EC50 (MCF7): > 20 µg/mL

SMILES: CC1(C)CC[C@]2(C)[C@@H](O)C[C@]3(C)C(=CC[C@@H]4[C@@]5(C)CC[C@H](O[C@@H]6OC[C@@H](O)[C@H](O[C@@H]7OC[C@H](O)[C@H](O)[C@H]7O)[C@H]6O[C@@H]6O[C@H](CO)[C@@H](O)[C@H](O)[C@H]6O)C(C)(C)[C@@H]5CC[C@]43C)[C@@H]2C1 [NEPHELIOSIDE V]
- EC50 (LNCaP): 11.7 µg/mL (≈ 13.5 µM)
- EC50 (Lu1): 13.6 µg/mL (≈ 15.6 µM)
- CC50 [1]: 17.7 µg/mL (≈ 20.4 µM)
- EC50 (MCF7): 13.9 µg/mL (≈ 16 µM)
